From ChEMBL document CHEMBL5107987, “New naphtho/thienobenzo-triazoles with interconnected anti-inflammatory and cholinesterase inhibitory activity” (Eur J Med Chem, 2022) come the findings set out here.

Where only a bound is given, the exact number is not on record here.

For series [1], the target named is Cholinesterase (Equus caballus) (UniProt P81908). The series is described as follows: Inhibition of equine serum BuChE using S-butyrylthiocholine iodide as substrate pre-incubated for 5 mins followed by substrate addition at 250 uM and measured after 6 mins by Ellman's method relative to control. In general terms: In Ellman's method for cholinesterases, released thiocholine reacts with DTNB.
Chain of Cholinesterase (Equus caballus) (P81908 whole entry): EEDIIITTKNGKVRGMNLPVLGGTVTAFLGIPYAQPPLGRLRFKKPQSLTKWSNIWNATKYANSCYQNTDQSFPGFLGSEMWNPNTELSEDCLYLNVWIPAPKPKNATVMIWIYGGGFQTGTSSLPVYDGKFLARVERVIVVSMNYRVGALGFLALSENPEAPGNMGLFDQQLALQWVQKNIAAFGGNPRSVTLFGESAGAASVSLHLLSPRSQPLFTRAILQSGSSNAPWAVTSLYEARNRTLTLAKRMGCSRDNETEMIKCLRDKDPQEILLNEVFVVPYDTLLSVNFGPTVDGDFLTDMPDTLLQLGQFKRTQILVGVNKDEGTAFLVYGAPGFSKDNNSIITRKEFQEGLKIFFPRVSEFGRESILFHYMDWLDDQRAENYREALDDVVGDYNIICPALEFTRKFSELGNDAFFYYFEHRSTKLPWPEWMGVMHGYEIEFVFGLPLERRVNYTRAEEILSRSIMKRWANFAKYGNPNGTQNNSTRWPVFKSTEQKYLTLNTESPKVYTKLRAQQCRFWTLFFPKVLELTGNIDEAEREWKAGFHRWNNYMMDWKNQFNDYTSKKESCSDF

Series [2] addresses Acetylcholinesterase (Electrophorus electricus) (UniProt O42275). The series is described as follows: Inhibition of electric eel AChE using acetylthiocholine iodide as substrate pre-incubated for 5 mins followed by substrate addition at 500 uM and measured after 6 mins by Ellman's method relative to control.
Series [3] can be described thus: Cytotoxicity against human PBMC assessed as effect on cell viability measured by Cell Titer Glo assay. Format: toxicity, cell-based. (In general: In ATP-based viability assays light output follows the ATP content of the culture.)
A short description of series [4]: Inhibition of TNF-alpha production in LPS-stimulated human PBMC measured after 24 hrs by ELISA. Format: functional, cell-based.
In series [5] the target is Cholinesterase (Equus caballus) (UniProt P81908). The series is described as follows: Inhibition of equine serum BuChE using S-butyrylthiocholine iodide as substrate pre-incubated for 5 mins followed by substrate addition at 800 uM and measured after 6 mins by Ellman's method relative to control.
For series [6], the target named is Acetylcholinesterase (Electrophorus electricus) (UniProt O42275). The series is described as follows: Inhibition of electric eel AChE using acetylthiocholine iodide as substrate pre-incubated for 5 mins followed by substrate addition at 800 uM and measured after 6 mins by Ellman's method relative to control.
Chain of Acetylcholinesterase (Electrophorus electricus) (O42275 24-633 limits assumed): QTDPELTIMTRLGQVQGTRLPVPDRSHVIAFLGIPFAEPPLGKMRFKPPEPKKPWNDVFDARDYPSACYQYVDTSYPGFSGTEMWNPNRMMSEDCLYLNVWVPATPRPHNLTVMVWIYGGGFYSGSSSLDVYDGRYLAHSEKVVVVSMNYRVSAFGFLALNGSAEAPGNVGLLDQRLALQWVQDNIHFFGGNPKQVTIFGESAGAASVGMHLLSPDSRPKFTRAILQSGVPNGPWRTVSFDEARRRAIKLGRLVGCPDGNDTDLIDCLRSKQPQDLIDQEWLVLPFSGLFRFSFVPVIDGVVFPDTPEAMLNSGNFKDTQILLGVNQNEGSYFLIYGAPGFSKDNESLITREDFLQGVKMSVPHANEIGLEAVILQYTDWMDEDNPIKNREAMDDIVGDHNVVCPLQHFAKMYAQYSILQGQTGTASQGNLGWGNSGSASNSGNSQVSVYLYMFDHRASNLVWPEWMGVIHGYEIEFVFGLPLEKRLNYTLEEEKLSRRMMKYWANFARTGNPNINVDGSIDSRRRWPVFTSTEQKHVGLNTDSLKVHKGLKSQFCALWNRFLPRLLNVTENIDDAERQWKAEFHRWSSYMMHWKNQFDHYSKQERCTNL
Series [7] is described as follows: Inhibition of TNF-alpha production in LPS-stimulated human PBMC measured after 24 hrs by ELISA relative to control. Type of series: functional. (An ELISA detects its analyte on a solid surface through an enzyme-linked reagent.)
The target in series [8] is Cholinesterase (Equus caballus) (UniProt P81908). The series is described as follows: Inhibition of equine serum BuChE using S-butyrylthiocholine iodide as substrate pre-incubated for 5 mins followed by substrate addition at 500 uM and measured after 6 mins by Ellman's method relative to control.
In the next series the target is Cholinesterase (Equus caballus, UniProt P81908). The series is described as follows: Inhibition of equine serum BuChE using S-butyrylthiocholine iodide as substrate pre-incubated for 5 mins followed by substrate addition and measured after 6 mins by Ellman's method.
Chain of Cholinesterase (P81908 whole entry): as the sequence (P81908 whole entry) above
Series [9] concerns the target Acetylcholinesterase (Electrophorus electricus) (UniProt O42275). The series is described as follows: Inhibition of electric eel AChE using acetylthiocholine iodide as substrate pre-incubated for 5 mins followed by substrate addition at 1000 uM and measured after 6 mins by Ellman's method relative to control.
In series [10] the target is Cholinesterase (Equus caballus) (UniProt P81908). The series is described as follows: Inhibition of equine serum BuChE using S-butyrylthiocholine iodide as substrate pre-incubated for 5 mins followed by substrate addition at 200 uM and measured after 6 mins by Ellman's method relative to control.
The target of another series is Acetylcholinesterase (Electrophorus electricus, UniProt O42275). The series is described as follows: Inhibition of electric eel AChE using acetylthiocholine iodide as substrate pre-incubated for 5 mins followed by substrate addition and measured after 6 mins by Ellman's method.
Chain of Acetylcholinesterase (O42275 whole entry): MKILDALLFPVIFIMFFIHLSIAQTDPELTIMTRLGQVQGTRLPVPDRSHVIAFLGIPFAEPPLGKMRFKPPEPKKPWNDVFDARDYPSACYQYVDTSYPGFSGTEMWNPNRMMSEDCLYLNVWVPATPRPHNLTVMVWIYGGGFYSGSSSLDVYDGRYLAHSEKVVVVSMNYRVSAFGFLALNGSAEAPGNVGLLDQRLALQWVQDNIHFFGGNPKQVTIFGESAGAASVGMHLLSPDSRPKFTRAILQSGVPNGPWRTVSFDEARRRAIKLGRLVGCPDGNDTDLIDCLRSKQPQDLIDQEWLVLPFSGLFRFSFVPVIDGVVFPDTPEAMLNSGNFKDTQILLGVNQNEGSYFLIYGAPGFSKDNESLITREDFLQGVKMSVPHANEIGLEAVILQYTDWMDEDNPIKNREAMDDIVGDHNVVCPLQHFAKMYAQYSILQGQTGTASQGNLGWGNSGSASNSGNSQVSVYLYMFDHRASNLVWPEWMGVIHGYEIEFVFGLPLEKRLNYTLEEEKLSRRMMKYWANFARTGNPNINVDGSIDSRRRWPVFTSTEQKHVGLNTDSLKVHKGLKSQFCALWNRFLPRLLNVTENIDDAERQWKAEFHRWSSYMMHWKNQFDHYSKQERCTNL
The target of series [11] is Acetylcholinesterase (Electrophorus electricus) (UniProt O42275). The series is described as follows: Inhibition of electric eel AChE using acetylthiocholine iodide as substrate pre-incubated for 5 mins followed by substrate addition at 100 uM and measured after 6 mins by Ellman's method relative to control.
The target in series [12] is Cholinesterase (Equus caballus) (UniProt P81908). The series is described as follows: Inhibition of equine serum BuChE using S-butyrylthiocholine iodide as substrate pre-incubated for 5 mins followed by substrate addition at 100 uM and measured after 6 mins by Ellman's method relative to control.
Series [13] shares this target. The series is described as follows: Inhibition of equine serum BuChE using S-butyrylthiocholine iodide as substrate pre-incubated for 5 mins followed by substrate addition at 50 uM and measured after 6 mins by Ellman's method relative to control.

One may read the inhibition as the drop in the measured response relative to a control, in per cent. Low readings indicate a response near the control, high ones a response far below the control. Usually IC50 stands for the point on the concentration scale where inhibition reaches its midpoint. A low value points to higher potency. On to `CCCn1cc(/C=C/c2cccs2)nn1`, for which the inhibition in series [1] is 79.2%; in series [2] it was 36.9%. In addition, in series [3], the Activity result is “Non-Toxic”. The same compound yielded an IC50 in [4] greater than 33 µM.
Take `OCCCCn1cc(/C=C\c2cccs2)nn1`: the inhibition in series [5] is 48.7%; in [6], 45.2%.
For the compound `CC(c1ccccc1)n1cc(/C=C\c2cccs2)nn1` (stereo not drawn), the Activity result in [3] is reported as “Non-Toxic”. The compound further registered an IC50 in series [4] greater than 33 µM.
For `C=CCn1cc(/C=C\c2cccs2)nn1` the same measures were “Non-Toxic” and greater than 33 µM.
With `c1ccc2[nH]c(CCn3nnc4ccc5sccc5c43)cc2c1`, in [3], the Activity entry is “Non-Toxic”. In addition, the “inhibition (INH)” value in [7] is listed as less than 50%.
As to `COc1ccc(Cn2cc(/C=C\c3ccccc3C#N)nn2)cc1`, the Activity result in series [3] is given as “Non-Toxic”. For the same compound, in series [4], the IC50 is greater than 33 µM.
Regarding `CC(C)n1nnc2ccc3ccc(Cl)cc3c21`, the Activity entry in series [3] is “Non-Toxic”. In series [4], this compound showed an IC50 of 22.2 µM.
For the compound `COc1ccc(Cn2nnc3ccc4cccc(C#N)c4c32)cc1`, the “inhibition (INH)” value in series [7] was less than 50%.
As for `COc1ccc(Cn2cc(/C=C/c3ccccc3C#N)nn2)cc1`, in [3], the Activity entry is recorded as “Non-Toxic”. Also, in [4], the IC50 was greater than 33 µM.
Regarding `O=[N+]([O-])c1ccc(-n2nnc3ccc4sccc4c32)cc1`, the values for the inhibition in [2] and in [8] were 43.3% and 53.4%, respectively. The “inhibition (INH)” value in [7] was less than 50%. For the same compound, the half-inhibitory concentration (IC50) against Cholinesterase worked out at 449 µM.
Consider `CCCn1nnc2ccc3sccc3c21`, for which the “inhibition (INH)” value in series [7] is less than 50%. Moreover, the results for the inhibition in [9] and in [10] were 56.2% and 91.7%, respectively.
In the case of `COc1ccc(Cn2nnc3ccc4ccc(OC)cc4c32)cc1`, the Activity result in series [3] is “Non-Toxic”. Also, in series [4], the half-inhibitory concentration (IC50) came out at 2.2 µM.
For `C(=C/c1cccs1)/c1cn(CCc2cc3ccccc3[nH]2)nn1`, the inhibition in series [2] was 67.4%; in series [8], 59.5%. For the same compound, the Activity entry in [3] was “Non-Toxic”. The IC50 at Acetylcholinesterase was 596 µM; at Cholinesterase it was 234 µM; in [4], greater than 33 µM.
Take `C[C@@H]1C[C@H]2[C@@H]3CCC4=CC(=O)C=C[C@]4(C)[C@@]3(F)[C@@H](O)C[C@]2(C)[C@@]1(O)C(=O)CO` [DEXAMETHASONE]: the concentration for half-maximal inhibition (IC50) in [4] came out at 0.0036 µM.
Regarding `COc1ccc2ccc3nnn(CCCCO)c3c2c1`, the Activity entry in series [3] is listed as “Non-Toxic”. In series [4], this compound came in with an IC50 of 7.9 µM.
Turning to `C=CCn1cc(/C=C/c2cccs2)nn1`, the Activity result in series [3] is “Non-Toxic”. Moreover, the IC50 in [4] was greater than 33 µM.
For the compound `O=[N+]([O-])c1ccc(-n2cc(/C=C\c3cccs3)nn2)cc1`, the inhibition was 34.1% in series [11] and 12.3% in [12].
Take `C=CCn1nnc2ccc3sccc3c21`: the inhibition is 80% in series [13] and 76.9% in series [2]. Further, the Activity entry in series [3] is on record as “Non-Toxic”. Besides, the IC50 came out at 56.2 µM against Acetylcholinesterase, 3.8 µM on Cholinesterase and 27.7 µM in series [4].
In the case of `CC(C)n1nnc2ccc3ccccc3c21`, the “inhibition (INH)” value in series [7] is given as less than 50%.
For `CCCn1cc(/C=C\c2cccs2)nn1`, the Activity result in [3] was “Non-Toxic”. Also, the IC50 against Cholinesterase is 95.6 µM; in series [4], greater than 33 µM. Moreover, the inhibition in series [9] is 21.9%; in series [10], 66.1%.
